Consider seven compounds from US20070166547A1, “Use of a layer consisting of hydrophobic linear, or two-dimensional polycyclic aromatics as a barrier layer or an encapsulation and electric components constructed with a layer of this type and comprising organic polymers” (priority 2003, published 2007).

The nature of series [1]: Polarographic study of electrochemical reduction (electrochemical activity). It is filed as physicochemical. Particulars: for number of electrons participating in the reduction: calculated with the Geirovsky-Ilkovich equation; for i, mkA (polarographic wave current) / −E1/2, V (half-wave potential vs SCE): 37° C., forward trace, average for the group; for i, mkA (polarographic wave current): 9·10^−4 M; for half-wave potential more positive on reverse stroke than on forward stroke: reverse stroke vs forward stroke. Here is the method:
The study was carried out on a general-purpose polarograph PU-1 with a two-coordinate recorder of the “LKD” type using a three-electrode thermostatically controlled polarographic cell and mercury dripping electrode (MDE) with forced separation of the drop and a dropping period of 0.5 second. A platinum wire was used as an auxiliary electrode and a saturated calomel electrode (SCE) was used as a control electrode.
2.0% solutions of sodium chloride having pH 7.0, 7.2, 7.4, 7.6 were used as a background; the pH values of the background solution were corrected by a solution of sodium hydroxide. The polarographic cell was filled with 5.0 ml of the background solution and for 5 minutes was purged with nitrogen for removing the dissolved oxygen. Then 0.5 ml of solution of the studied substance was added to the background solution, and the polarogram was recorded as a polarographic wave. The concentration of the compounds in the polarographic cell was 9·10^−4 M.
The pH was measured on the pH-meter with an accuracy of ±0.05 pH units. The polarographic measurements were carried out at a temperature of 37° C. The recording of polarograms of the investigated materials was effected under conditions of DC current at a scanning rate of the potential 10.0 mV/s with a active scanning stroke from a potential 0 to −0.5 V and sweep retrace from a −0.5 V to 0. The electric-current sensitivity was 5.0 mkA. The scale by the coordinate of the potentials was 50.0 mV/cm. The values of potentials of the half-wave E1/2 of the investigated materials are given with respect to the SCE potential.
The polarogram parameters such as a limiting current ilim and E1/2 were determined by the graphic method. The number of electrons participating in the reaction was calculated on the basis of the analysis of the polarographic wave using the Geirovsky-Ilkovich equation.

The nature of series [2]: Chronic toxicity, rectal suppositories: indexes of peripheral blood. Particulars: male rats; for Basophiles / Juveniles: 1 month/2 months (one value given).
Procedure: The experiments were conducted on inbred rats. The experimental animals were selected in groups by a method of random sampling taking into account the body mass as a determining index; 24 males or 24 females for one preparation from compounds 2, 15, 23, 34, 37 investigated in one dose.
Two doses of preparations used in the experiments: 50 mg/kg and 500 mg/kg. Before the administration, the suppositories were softened by heating in a glass water bath at a temperature of 38-39° C., the soft mass was collected in tuberculin syringe in a volume of 1 ml, a needle with oliva was attached to the syringe, and the preparatory mass was introduced into the rectum of the animal for a depth of 1.5-2.0 cm. The animals of the control group were administered with sterile medical liquid paraffin in a volume corresponding to the volume of the investigated suppository. A complete course of administration of drugs to the animals was two months. A complex of laboratory diagnostic investigations was carried out one month after the beginning of the administration of the preparation to the animal—in a middle of the course (8 animals), two months after ending the course (8 animals) and three months after ending the recovery period of one month (8 animals). The mass of the body of the rats in the first month of administration of the preparation was determined weekly, and then once in two weeks. On the basis of the dynamics of an index of the mass of the animal body, the volume of preparation being administered was corrected taking into account the test dose.
[3] abbreviates: suppositories 50 mg/kg, 1 month.
[4] abbreviates: suppositories 50 mg/kg, 2 months.
Where [5] appears, read: suppositories 500 mg/kg, 1 month.
Where [6] appears, read: suppositories 500 mg/kg, 2 months.

Take “sodium salt of 7-(β-O-ribofuranosile)pyrido[2,3-1]-6H-pyridazine-5,8-dione sodium salt [Compound 1]”: the “number of electrons participating in the reduction” value (“number … in the reduction” for short) in series [1] is reported as 3.72. The “i, mkA (polarographic wave current)” value in series [1] (pH 7.0) amounted to 0.26 ± 0.04 mkA; in series [1] (pH 7.2), 0.31 ± 0.02 mkA; in series [1] (pH 7.4), 0.27 ± 0.03 mkA; in series [1] (pH 7.6), 0.30 ± 0.01 mkA. Besides, the “−E1/2, V (half-wave potential vs SCE)” value amounted to 0.11 ± 0.02 V in series [1] (pH 7.0), 0.11 ± 0.03 V in series [1] (pH 7.2), 0.105 ± 0.01 V in series [1] (pH 7.4) and 0.105 ± 0.02 V in series [1] (pH 7.6). Also, the “half-wave potential more positive on reverse stroke than on forward stroke” value (“half-wave potential more positive” below) in series [1] was found to be 25.0 mV.
Regarding `O=C([O-])c1ncnc2c(=O)n([C@@H]3O[C@H](CO)[C@@H](O)[C@H]3O)[nH]c(=O)c12.[Na+]` [Compound 34, sodium salt of 4-carboxy-7-(β-D-ribofuranosile)pyrimido[4,5-D]-6H-pyridazine-5,8-dione], in series [2] (setting [3]), the “Average volume of erythrocytes” value was 81.6 ± 1.9 Mkm^3; the “Coagulation, time” value was found to be 148 ± 16 s; the Eosinophiles was 3.5 ± 1.0%; the Erythrocytes was 5.6 ± 0.1 mln/mm^3. In series [2] (setting [3]), this compound showed a Haematocrite of 46.9 ± 1.1%, a Hemoglobin of 10.6 ± 0.1 mmol/L, a Leukocyte of 15.9 ± 1.3 thousand/mm^3 and an REE of 1.8 ± 0.5 mm/h. In series [2] (setting [3]), the Reticulocytes was 2.7 ± 0.1%, the Stab neutrophil is given as 1.0 ± 0.4% and the Thrombocytes is 670 ± 23. Besides, in series [2] (suppositories 50 mg/kg), the Basophiles is 0% and the Juveniles stood at 0%. Further, in series [2] (setting [4]), the “Average volume of erythrocytes” value is recorded as 76.7 ± 1.9 Mkm^3; the “Coagulation, time” value was 321 ± 10 s; the Eosinophiles was found to be 4.1 ± 0.4%; the Erythrocytes is given as 6.1 ± 0.2 mln/mm^3. In series [2] (setting [4]), this compound had a Haematocrite of 47.5 ± 1.2%, a Hemoglobin of 11.1 ± 0.2 mmol/L, a Leukocyte of 17.8 ± 1.4 thousand/mm^3 and an REE of 1.7 ± 0.3 mm/h. In addition, in series [2] (setting [4]), the Reticulocytes is 2.9 ± 0.2%, the Stab neutrophil was 1.8 ± 0.5% and the Thrombocytes was determined as 610 ± 15. In addition, in series [2] (setting [5]), the “Average volume of erythrocytes” value is listed as 84.1 ± 1.3 Mkm^3, the Eosinophiles amounted to 3.0 ± 0.9%, the Erythrocytes is 5.6 ± 0.2 mln/mm^3 and the Haematocrite worked out at 48.1 ± 1.5%. Moreover, in series [2] (setting [5]), the Hemoglobin is 10.6 ± 0.3 mmol/L, the Leukocyte turned out to be 16.9 ± 1.0 thousand/mm^3, the REE turned out to be 2.0 ± 0.4 mm/h and the Reticulocytes is 3.2 ± 0.2%. In addition, in series [2] (setting [5]), the Stab neutrophil amounted to 0.9 ± 0.2% and the Thrombocytes amounted to 682 ± 24. In series [2] (suppositories 500 mg/kg), this compound registered a Basophiles of 0% and a Juveniles of 0%. In addition, in series [2] (setting [6]), the “Average volume of erythrocytes” value came out at 83.8 ± 1.5 Mkm^3; the “Coagulation, time” value was 312 ± 9 s; the Eosinophiles is on record as 3.9 ± 1.4%; the Erythrocytes was 6.6 ± 0.1 mln/mm^3. In series [2] (setting [6]), the Haematocrite came out at 53.1 ± 1.6%, the Hemoglobin is 12.4 ± 0.4 mmol/L, the Leukocyte worked out at 22.1 ± 1.1 thousand/mm^3 and the REE was 1.8 ± 0.2 mm/h. In series [2] (setting [6]), this compound returned a Reticulocytes of 3.5 ± 0.3%, a Stab neutrophil of 1.4 ± 0.3% and a Thrombocytes of 631 ± 26.
For the compound “disodium salt of 3-Kap ? OKC ? -7-(β-D-ribofuranosile)pyrido[2,3-d]-6H-pyridazine-5,8-dione [Compound 5]”, the “number … in the reduction” value in series [1] is on record as 3.72. For the same compound, the “i, mkA (polarographic wave current)” value in series [1] (pH 7.0) came to 0.26 ± 0.04 mkA; in series [1] (pH 7.2), 0.31 ± 0.02 mkA; in series [1] (pH 7.4), 0.27 ± 0.03 mkA; in series [1] (pH 7.6) it was 0.30 ± 0.01 mkA. The “−E1/2, V (half-wave potential vs SCE)” value in series [1] (pH 7.0) amounted to 0.11 ± 0.02 V; in series [1] (pH 7.2) it was 0.11 ± 0.03 V; in series [1] (pH 7.4), 0.105 ± 0.01 V; in series [1] (pH 7.6), 0.105 ± 0.02 V. Moreover, the “half-wave potential more positive” value in series [1] is given as 25.0 mV.
As to `O=c1[nH]n([C@@H]2O[C@H](CO)[C@@H](O)[C@H]2O)c(=O)c2ncnc(O)c12.[Na]` [Compound 33, sodium salt of 4-hydroxy-7-(β-D-ribofuranosile)pyrimido[4,5-d]-6H-pyridazine-5,8-dione], in series [1], the “number … in the reduction” value is listed as 3.5. The “i, mkA (polarographic wave current)” value in series [1] (pH 7.0) is 0.30 ± 0.05 mkA; in series [1] (pH 7.2), 0.26 ± 0.02 mkA; in series [1] (pH 7.4), 0.30 ± 0.03 mkA; in series [1] (pH 7.6), 0.30 ± 0.02 mkA. Further, the “−E1/2, V (half-wave potential vs SCE)” value in series [1] (pH 7.0) is 0.08 ± 0.02 V; in series [1] (pH 7.4) it was 0.085 ± 0.02 V; in series [1] (pH 7.6), 0.09 ± 0.02 V. In addition, the “half-wave potential more positive” value in series [1] amounted to 27.0 mV.
`COP(=O)(OC)C(C)(C)CC(C)=O` [dimephosphon, dimethyl ester of 1,1-dimethyl-3-oxybuthyl of phosphonic acid, reference compound]: the “number … in the reduction” value in series [1] is reported as 1.6. Besides, the “i, mkA (polarographic wave current)” value is recorded as 0.10 ± 0.03 mkA in series [1] (pH 7.0), 0.12 ± 0.03 mkA in series [1] (pH 7.2), 0.11 ± 0.02 mkA in series [1] (pH 7.4) and 0.11 ± 0.02 mkA in series [1] (pH 7.6). For the same compound, the “−E1/2, V (half-wave potential vs SCE)” value in series [1] (pH 7.0) was 0.175 ± 0.01 V; in series [1] (pH 7.2) it was 0.17 ± 0.02 V; in series [1] (pH 7.4), 0.18 ± 0.01 V; in series [1] (pH 7.6) it was 0.18 ± 0.01 V. Also, in series [1], the “half-wave potential more positive” value is listed as 50.0 mV.
For `O=c1[nH][nH]c(=O)c2nccnc12.[Na]` [Compound 26, sodium salt of pyrazine[2,3-d]-6H-pyridazine-5,8-dione], the “half-wave potential more positive” value in series [1] amounted to 27.0 mV.
In the case of “potassium salt of 3-bromine-pyrazine[2,3-Cl]-6H-pyridazine-5,8-dione [Compound 27]”, the “number … in the reduction” value in series [1] is reported as 3.72. The “i, mkA (polarographic wave current)” value amounted to 0.32 ± 0.03 mkA in series [1] (pH 7.0), 0.33 ± 0.04 mkA in series [1] (pH 7.2), 0.34 ± 0.03 mkA in series [1] (pH 7.4) and 0.34 ± 0.02 mkA in series [1] (pH 7.6). Further, the “−E1/2, V (half-wave potential vs SCE)” value in series [1] (pH 7.0) turned out to be 0.16 ± 0.02 V; in series [1] (pH 7.2), 0.19 ± 0.02 V; in series [1] (pH 7.4), 0.175 ± 0.01 V; in series [1] (pH 7.6), 0.16 ± 0.015 V. Moreover, in series [1], the “half-wave potential more positive” value came to 20.0 mV.
